Source: ChEMBL document CHEMBL1144040, “Inhibitors of anthrax lethal factor based upon N-oleoyldopamine” (Bioorg Med Chem Lett, 2008)
Active and inactive are the calls of the source. The calls are words filed in the database; no cut-off is given here.

Key:
[1] = target: T1, Lethal factor (Bacillus anthracis) (UniProt P15917); test: Inhibition of Bacillus anthracis lethal factor up to 100 uM by FRET assay
T1 sequence (whole entry): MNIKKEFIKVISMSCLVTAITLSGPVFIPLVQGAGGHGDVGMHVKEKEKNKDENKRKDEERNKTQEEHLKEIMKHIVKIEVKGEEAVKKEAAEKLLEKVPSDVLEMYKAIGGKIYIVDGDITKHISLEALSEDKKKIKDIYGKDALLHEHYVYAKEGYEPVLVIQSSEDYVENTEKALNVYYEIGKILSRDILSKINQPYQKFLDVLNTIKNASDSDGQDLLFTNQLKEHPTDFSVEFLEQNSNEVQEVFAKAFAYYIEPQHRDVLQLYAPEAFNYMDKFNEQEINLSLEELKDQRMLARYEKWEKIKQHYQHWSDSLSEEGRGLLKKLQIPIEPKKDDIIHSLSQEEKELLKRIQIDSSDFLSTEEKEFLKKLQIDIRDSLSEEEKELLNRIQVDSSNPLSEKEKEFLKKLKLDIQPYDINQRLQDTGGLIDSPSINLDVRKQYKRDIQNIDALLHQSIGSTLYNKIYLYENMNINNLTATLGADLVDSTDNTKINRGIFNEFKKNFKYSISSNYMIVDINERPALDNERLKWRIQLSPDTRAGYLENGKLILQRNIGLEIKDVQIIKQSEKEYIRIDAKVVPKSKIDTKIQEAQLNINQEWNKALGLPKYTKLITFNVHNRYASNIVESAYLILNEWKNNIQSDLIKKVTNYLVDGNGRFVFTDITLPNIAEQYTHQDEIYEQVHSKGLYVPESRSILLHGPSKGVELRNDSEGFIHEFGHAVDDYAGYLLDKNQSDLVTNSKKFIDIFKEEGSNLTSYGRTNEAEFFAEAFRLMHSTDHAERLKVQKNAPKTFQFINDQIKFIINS

Lethal factor [2] = target: T2, Lethal factor (Bacillus anthracis, UniProt P15917); test: Inhibition of Bacillus anthracis lethal factor by FRET assay
T2 sequence (P15917 whole entry): T1 sequence (whole entry)

J774.A1 = test: Inhibition of lethal factor induced toxicity in mouse J774A.1 macrophages after 4 hrs by MTT assay; type: functional, cell-based; conditions: J774.A1, 4 h
Lethal factor [3] = target: T2, Lethal factor; test: Inhibition of Bacillus anthracis lethal factor by cell-based assay

Compound | Activity [1] | Ki (Lethal factor [2]) [µM] | IC50 (J774.A1) [µM] | IC50 (Lethal factor [3]) [µM]
CCCCCC(=O)NCCc1ccc(O)c(O)c1 | inactive | – | – | –
CCCCCCCC/C=C/CCCCCCCC(=O)NCCc1ccc(O)c(O)c1 | inactive | – | – | –
CCCCCCCC/C=C\CCCCCCCC(=O)NCc1ccc(O)c(O)c1 | – | 2.2 | 4.3 | 15
CCCCCCCC/C=C\CCCCCCCC(=O)NCc1ccc(C(=O)NO)cc1 | – | 6.2 | – | 42
CCCCCCCCCCCCCCCCCC(=O)NCCc1ccc(O)c(O)c1 | inactive | – | – | –
